Legend:
[1] = molecular target: T1, human B1R receptor (hB1R) (Homo sapiens, UniProt P46663); assay: FLIPR Ca2+ functional study on bradykinin receptor 1, hB1R cells (CHO K1); assay type: cell-based; conditions: 10 μM test substance; CHO K1 cells with human B1R; agonist Lys-Des-Arg9-bradykinin at EC80; 10 µM
T1 construct: expressed in transfected cells; host or cells: CHO K1 cells, stably transfected
T1 sequence (P46663 1-353): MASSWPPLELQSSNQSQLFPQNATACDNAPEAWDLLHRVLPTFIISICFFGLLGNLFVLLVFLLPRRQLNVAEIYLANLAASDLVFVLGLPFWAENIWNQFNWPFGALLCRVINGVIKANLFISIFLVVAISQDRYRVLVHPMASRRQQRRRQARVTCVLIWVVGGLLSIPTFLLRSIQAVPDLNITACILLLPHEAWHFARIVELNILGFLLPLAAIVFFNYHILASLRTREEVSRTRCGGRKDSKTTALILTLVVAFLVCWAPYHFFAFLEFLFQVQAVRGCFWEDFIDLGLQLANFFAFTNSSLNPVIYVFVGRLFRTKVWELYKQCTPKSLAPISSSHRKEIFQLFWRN
Summary of the method: (§1)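 Stably transfected CHO K1 cells loaded with Fluo-4; FLIPR Ca2+ fluorescence (ex 488/em 540 nm, peak counts). Compounds (10 μM, or concentration series for IC50) preincubated 10–20 min, then EC80 agonist added (human: Lys-Des-Arg9-bradykinin; rat: Des-Arg9-bradykinin); % inhibition versus maximum achievable, n=2–3, N≥2.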

[2] = molecular target: T2, B1R receptor of the rat (rB1R) (Rattus norvegicus, UniProt P97583); assay: FLIPR Ca2+ functional study on bradykinin receptor 1, rB1R cells (CHO K1); assay type: cell-based; conditions: 10 μM test substance; CHO K1 cells with rat B1R; agonist Des-Arg9-bradykinin at EC80
T2 construct: expressed in transfected cells; host or cells: CHO K1 cells, stably transfected
T2 sequence (P97583 1-337): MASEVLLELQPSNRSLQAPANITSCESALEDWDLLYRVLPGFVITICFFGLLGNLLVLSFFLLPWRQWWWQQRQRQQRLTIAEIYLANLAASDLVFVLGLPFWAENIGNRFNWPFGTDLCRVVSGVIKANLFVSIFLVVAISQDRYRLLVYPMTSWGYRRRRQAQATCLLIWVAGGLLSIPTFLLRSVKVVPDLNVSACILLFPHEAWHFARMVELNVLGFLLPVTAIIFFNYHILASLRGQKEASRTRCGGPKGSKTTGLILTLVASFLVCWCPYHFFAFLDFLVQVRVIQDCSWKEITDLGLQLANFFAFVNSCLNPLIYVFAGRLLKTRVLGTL
Summary of the method: as §1

B1R antagonism, human [10 μM] % inhibition [1]: 98% | B1R antagonism, rat [10 μM] % inhibition [2]: 100%
Compound: COc1cc(C)c(S(=O)(=O)N2CCCc3ccc(C(=O)N4CCC5(CC4)CCN(c4ccncc4)CC5)cc32)c(C)c1 [G_CC-056, [1-[(4-Methoxy-2,6-dimethyl-phenyl)sulfonyl]-1,2,3,4-tetrahydro-quinolin-7-yl]-(3-pyridin-4-yl-3,9-diazaspiro[5.5]undecan-9-yl)-methanone]

Source: patent publication US8357717B2, “Spiro group-containing amide compounds having bradykinin 1 receptor (B1R) activity” (Gruenenthal GmbH, priority 2009, dated 2013)
